Active and inactive are the calls of the source. The rule behind the calls is not given here.
Tests used:
[1] = molecular target: T1, Pancreatic triacylglycerol lipase (Sus scrofa) (UniProt P00591); assay: Inhibition of porcine pancreatic lipase at 100 ug/ml pre-incubated for 15 mins before p-nitrophenylbutyrate substrate addition by microplate reader based method
T1 sequence (whole entry): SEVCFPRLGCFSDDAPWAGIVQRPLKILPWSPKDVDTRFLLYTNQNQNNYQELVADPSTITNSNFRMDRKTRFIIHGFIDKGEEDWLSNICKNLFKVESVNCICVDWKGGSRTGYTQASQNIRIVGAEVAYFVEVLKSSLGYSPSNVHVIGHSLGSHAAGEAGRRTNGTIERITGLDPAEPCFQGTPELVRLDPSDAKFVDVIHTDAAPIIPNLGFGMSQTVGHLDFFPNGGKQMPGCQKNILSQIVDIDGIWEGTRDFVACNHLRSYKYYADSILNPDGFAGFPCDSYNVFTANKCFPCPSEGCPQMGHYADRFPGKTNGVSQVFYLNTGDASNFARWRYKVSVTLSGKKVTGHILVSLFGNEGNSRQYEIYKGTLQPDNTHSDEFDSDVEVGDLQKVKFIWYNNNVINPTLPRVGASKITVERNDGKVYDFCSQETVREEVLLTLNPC

[2] = molecular target: T2, Pancreatic triacylglycerol lipase (Sus scrofa, UniProt P00591); assay: Inhibition of porcine pancreatic lipase pre-incubated for 15 mins before p-nitrophenylbutyrate substrate addition by microplate reader based method
T2 sequence (P00591 whole entry): T1 sequence (whole entry)

[3] = molecular target: T1, Pancreatic triacylglycerol lipase (Sus scrofa); assay: Mixed type inhibition of porcine pancreatic lipase pre-incubated for 15 mins before p-nitrophenylbutyrate substrate addition by Lineweaver-Burk plot method

Structure (SMILES)	inhibition [1]	IC50 [2]	inhibition [3]
COc1ccc(-c2coc3cc(O)cc(O)c3c2=O)cc1 [BIOCHANIN]	6.1%	> 100 µM	–
O=C1C[C@@H](c2ccc(O)cc2)Oc2cc(O)cc(O)c21 [NARINGENIN]	25.2%	> 100 µM	–
CC(C)=CCc1c(O)cc(O)c2c1OC(c1ccc(O)cc1)CC2=O (configuration not stated) [SOPHORAFLAVANONE B]	55.5%	76.9 µM	–
CC(C)=CCc1c(O)cc2occ(-c3ccc(O)cc3)c(=O)c2c1O [WIGHTEONE]	49.6%	> 100 µM	–
CC1(C)C=Cc2c(cc3occc(=O)c3c2O)O1	27.5%	> 100 µM	–
O=C1c2c(cc(O)c(O)c2O)O[C@H](c2ccc(O)cc2)[C@H]1O	40.1%	> 100 µM	–
CC(C)(O)CCc1c(O)cc(O)c2c1O[C@@H](c1cc3c(cc1O)OC(C)(C)C=C3)CC2=O	52%	84.6 µM	–
O=C1c2c(O)cc(O)cc2O[C@H](c2ccc(O)cc2)[C@H]1O [DIHYDROKAEMPFEROL]	10.8%	> 100 µM	–
O=c1c(O)c(-c2ccc(O)cc2O)oc2cc(O)cc(O)c12 [MORIN]	26.3%	> 100 µM	–
O=c1c(O)c(-c2ccc(O)cc2)oc2cc(O)cc(O)c12 [KAEMPFEROL]	37%	> 100 µM	–
CC(C)=CCc1c(O)cc2c(c1O)C(=O)C[C@@H](c1cc3c(cc1O)OC(C)(C)C=C3)O2 [CUDRAFLAVANONE A]	81.4%	6.5 µM	Active
O=c1c(-c2ccc(O)cc2)coc2cc(O)cc(O)c12 [GENISTEIN]	3.2%	> 100 µM	–
CC(C)=CCc1c(O)c(Cc2ccc(O)cc2)c(O)c2c1O[C@H](c1ccc(O)cc1)CC2=O	70.1%	54.8 µM	–

Reference: ChEMBL document CHEMBL3608203, “Benzylated and prenylated flavonoids from the root barks of Cudrania tricuspidata with pancreatic lipase inhibitory activity” (Bioorg Med Chem Lett, 2015)
